This note sets out measurements from ChEMBL document CHEMBL5120914, “An O-Benzyl Phosphonamidate Prodrug of Tenofovir for the Treatment of Hepatitis B Virus Infection” (J Med Chem, 2022).

The nature of data set [1]: Acute toxicity in overnight fasted Kunming mouse assessed as change in body weight at 1.5 g/Kg, IG measured for 15 days. The conditions noted are these: in vivo, po, 1500 mg/kg, 360 h, time 15 day.
Data set [2] is described as follows: Acute toxicity in overnight fasted Kunming mouse assessed as animal survival at 1.5 g/Kg, IG measured for 15 days. To be noted: in vivo, po, 1500 mg/kg, 360 h, time 15 day.
The nature of data set [3]: Acute toxicity in overnight fasted Kunming mouse assessed as heart tissue damage at 1.5 g/Kg, IG measured on day 15. The conditions noted are these: in vivo, po, 1500 mg/kg.
Data set [4] is described as follows: Acute toxicity in overnight fasted Kunming mouse assessed as lung tissue damage at 1.5 g/Kg, IG measured on day 15. The format is tissue-based. To be noted: in vivo, po, 1500 mg/kg.
Data set [5] concerns Hepatitis B virus. The data set can be described thus: Antiviral activity against Hepatitis B virus infected in human HepG2.2.15 cells assessed as inhibition of viral DNA replication measured for 9 days by FQ-PCR analysis. In kind it is functional, organism-based. The conditions noted are these: HepG2 2.2.15, 216 h.
Data set [6] is described as follows: Toxicity in duck assessed as animal survival at 2.5 to 10 mg/kg, IG administered once daily for first 10 days followed by 10 to 40 mg/kg, IG for another 18 days. In kind it is organism-based. The conditions noted are these: anas platyrhynchos, in vivo, po, 672 h, dose 2.5-40 mg/kg, time 28 day.
The subject of data set [7] is Hepatitis B virus. Briefly: Antiviral activity against Hepatitis B virus infected in duck assessed as log reduction in viral DNA replication in serum at 2.5 to 10 mg/kg, IG administered once daily for first 10 days followed by 20 mg/kg, IG administered for another 18 days. To be noted: dose 2.5-20 mg/kg, time 28 day. The format is functional.
Data set [8] is described as follows: Toxicity in duck assessed as body weight gain at 2.5 to 10 mg/kg, IG administered once daily for first 10 days followed by 10 to 40 mg/kg, IG for another 18 days. The format is organism-based. The conditions noted are these: anas platyrhynchos, in vivo, po, 672 h, dose 2.5-40 mg/kg, time 28 day.
The nature of data set [9]: Acute toxicity in overnight fasted Kunming mouse assessed as side effects at 1.5 g/Kg, IG measured for 15 days. To be noted: in vivo, po, 1500 mg/kg, 360 h, time 15 day.
The nature of data set [10]: Metabolic stability in human plasma assessed as half life measured upto 24 hrs by HPLC analysis. In kind it is ADME, cell-free.
Data set [11] in a line: Drug metabolism in Sprague-Dawley rat liver assessed as AUC(0 to t) of TFV-DP at 20 mg/kg, IG meaured upto 12 hrs by HPLC-MS/MS analysis. The format is ADME, organism-based. To be noted: in vivo, po.
In data set [12] the test system is Hepatitis B virus. The data set can be described thus: Antiviral activity against Hepatitis B virus infected in duck assessed as log reduction in viral DNA replication in serum at 2.5 to 10 mg/kg, IG administered once daily for first 10 days followed by 10 mg/kg, IG administered for another 18 days. To be noted: dose 2.5-10 mg/kg, time 28 day. In kind it is functional.

The nature of data set [13]: Toxicity in duck assessed as liver hemorrhage at 2.5 to 10 mg/kg, IG administered once daily for first 10 days followed by 10 to 40 mg/kg, IG for another 18 days by hematoxyin-eosin staining based light microscopic analysis. In kind it is organism-based. To be noted: anas platyrhynchos, in vivo, po, 672 h, dose 2.5-40 mg/kg, time 28 day.
Data set [14] in a line: Metabolic stability in rat plasma assessed as half life measured upto 25 mins by HPLC analysis. The format is ADME, cell-free.
Data set [15] is described as follows: Toxicity in duck assessed as liver necrosis at 2.5 to 10 mg/kg, IG administered once daily for first 10 days followed by 10 to 40 mg/kg, IG for another 18 days by hematoxyin-eosin staining based light microscopic analysis. In kind it is organism-based. To be noted: anas platyrhynchos, in vivo, po, 672 h, dose 2.5-40 mg/kg, time 28 day.
Data set [16] in a line: Metabolic stability in dog plasma assessed as half life measured upto 24 hrs by HPLC analysis. In kind it is ADME, cell-free, Canis lupus familiaris.
The nature of data set [17]: Acute toxicity in overnight fasted Kunming mouse assessed as kidney tissue damage at 1.5 g/Kg, IG measured on day 15. The format is tissue-based. To be noted: in vivo, po, 1500 mg/kg.
Data set [18] concerns Hepatitis B virus. The data set can be described thus: Antiviral activity against Hepatitis B virus infected in human HepG2.2.15 cells assessed as inhibition of viral DNA replication at 1 uM measured after 6 days by FQ-PCR analysis relative to control. The format is functional, HepG2 2.2.15. On the set-up: scale not given: the % may be the effect or the level left. The conditions noted are these: time 6 day, 144 h, 1 µM.

Data set [19] can be described thus: Acute toxicity in overnight fasted Kunming mouse assessed as spleen tissue damage at 1.5 g/Kg, IG measured on day 15. In kind it is tissue-based. To be noted: in vivo, po, 1500 mg/kg.
Data set [20] is described as follows: Acute toxicity in overnight fasted Kunming mouse assessed as liver tissue damage at 1.5 g/Kg, IG measured on day 15. In kind it is tissue-based. To be noted: in vivo, po, 1500 mg/kg.
Data set [21] concerns Hepatitis B virus. The data set can be described thus: Antiviral activity against Hepatitis B virus infected in duck assessed as log reduction in viral DNA replication in serum at 2.5 to 10 mg/kg, IG administered once daily for first 10 days followed by 40 mg/kg, IG administered for another 18 days. In kind it is functional. To be noted: dose 2.5-40 mg/kg, time 28 day.
The nature of data set [22]: Cytotoxicity against human HepG2 cells assessed as reduction in cell growth incubated for 3 days by MTT assay. To be noted: time 3 day. In kind it is toxicity, cell-based. Background: Tetrazolium assays rely on reduction of a dye to a coloured formazan, in cell work by metabolically active cells.
A short description of data set [23]: Toxicity in duck assessed as body weight loss at 2.5 to 10 mg/kg, IG administered once daily for first 10 days followed by 10 to 40 mg/kg, IG for another 18 days. In kind it is organism-based. The conditions noted are these: anas platyrhynchos, in vivo, po, 672 h, dose 2.5-40 mg/kg, time 28 day.
Data set [24] in a line: Toxicity in duck assessed as inflammatory response in liver at 2.5 to 10 mg/kg, IG administered once daily for first 10 days followed by 10 to 40 mg/kg, IG for another 18 days by hematoxyin-eosin staining based light microscopic analysis. In kind it is organism-based. To be noted: anas platyrhynchos, in vivo, po, 672 h, dose 2.5-40 mg/kg, time 28 day.

A word on the EC50: it is the concentration giving half of the maximal effect. What is called half-life is the time needed for the level to fall by half in the phase considered. In general, CC50 refers to the concentration at which the toxic effect on the cells reaches its halfway point. With `Cc1ccccc1COP(=O)(CO[C@H](C)Cn1cnc2c(N)ncnc21)N[C@@H](C)C(=O)OC(C)C` (stereo in doubt; 1a), the Activity result in data set [1] is recorded as “Non-Toxic”; in [2] it was “Non-Toxic”; in data set [3], “Non-Toxic”; in data set [4], “Non-Toxic”; in data set [6], “Non-Toxic”; in data set [7], 3.6. Besides, the Activity entry is given as “Toxic” in data set [8]; “Non-Toxic” in data set [9]; 3 in [12]; “Non-Toxic” in [13]; “Non-Toxic” in [15]; “Non-Toxic” in data set [17]. Also, the Activity is 81.72% in data set [18]; “Non-Toxic” in [19]; “Non-Toxic” in [20]; 2.9 in [21]; “Non-Toxic” in [23]; “Non-Toxic” in data set [24]. In data set [5], the concentration for a half-maximal effect (EC50) came to 24 nM. Moreover, the half-life is > 1440 min in data set [10], < 5 min in data set [14] and > 1440 min in data set [16]. In addition, the AUCt in [11] was 781.6 ng·h/g. In data set [22], the CC50 at 72 h was > 500 µM.
